According to patent US10005792B2, “Aminoindane-, aminotetrahydronaphthalene- and aminobenzocyclobutane-derived PRMT5-inhibitors” (CTXT PTY LTD, priority 2014, dated 2018):
Structures can show the parent of a compound that is named as a salt.

target: T1, Full-length PRMT5 enzyme co-expressed with MEP50 (Homo sapiens (Human), UniProt O14744); assay: PRMT5 Biochemical Assay; settings: 200 nM histone H4 derived peptide substrate, 1 μM S-Adenosyl methionine, 4 hours at 37° C, Transcreener EPIGEN fluorescence polarisation
Procedure: (§1) Compounds of the invention may be tested for in vitro activity in the following assay: A histone H4 derived peptide is used as substrate (amino acid sequence: […]NH2). Full-length PRMT5 enzyme (NCBI Reference sequence NP-006100.2) was co-expressed with Hiss-MEP50 in insect cells and purified via Nickel immobilized metal affinity and gel filtration chromatography (“the enzyme”).
(§2) The 6 μL assay reactions are run in Greiner brand black 384-well low volume plates. All reactions contained assay buffer (phosphate buffered saline, 0.01% (v/v) Tween-20, 0.01% (w/v) albumin from chicken egg white, 1 mM dithiothreitol, 200 nM peptide substrate, 1 μM S-Adenosyl methionine, and 15 ng/reaction enzyme, with the enzyme being omitted from negative control reactions. Compounds were added in a volume of 100 nL from dilution series prepared in DMSO, positive and negative control reactions receiving the same volume DMSO without compound. The plates were sealed with adhesive seals and incubated for 4 hours at 37° C. Reaction progress was measured using the Transcreener™ EPIGEN methyltransferase assay (BellBrook Labs, Madison, Wis.) as recommended by the manufacturer. To each reaction 2 μL detection mix were added, containing coupling enzymes, fluorescence polarisation tracer, and AMP antibody. Plates were incubated for 90 min before being read on a PerkinElmer EnVision™ plate reader in fluorescence polarisation mode.

T1 sequence (O14744 whole entry): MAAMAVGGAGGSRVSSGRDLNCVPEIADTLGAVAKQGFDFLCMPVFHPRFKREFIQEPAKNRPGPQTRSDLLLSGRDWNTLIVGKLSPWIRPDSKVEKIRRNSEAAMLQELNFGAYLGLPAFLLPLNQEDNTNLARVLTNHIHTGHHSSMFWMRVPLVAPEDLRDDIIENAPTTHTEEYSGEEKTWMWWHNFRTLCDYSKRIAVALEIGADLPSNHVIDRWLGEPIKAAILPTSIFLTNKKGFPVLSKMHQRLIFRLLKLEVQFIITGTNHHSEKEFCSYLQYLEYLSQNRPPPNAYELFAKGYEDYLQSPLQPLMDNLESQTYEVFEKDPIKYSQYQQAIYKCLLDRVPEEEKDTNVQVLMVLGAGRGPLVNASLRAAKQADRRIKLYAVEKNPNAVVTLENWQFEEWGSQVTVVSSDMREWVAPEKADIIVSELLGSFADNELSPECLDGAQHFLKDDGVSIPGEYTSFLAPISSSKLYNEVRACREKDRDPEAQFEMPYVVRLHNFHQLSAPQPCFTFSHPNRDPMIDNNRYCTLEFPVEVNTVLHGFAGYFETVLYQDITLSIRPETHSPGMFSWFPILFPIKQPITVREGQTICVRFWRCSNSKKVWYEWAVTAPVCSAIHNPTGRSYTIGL
T1 sequence (Q9BQA1 whole entry partner): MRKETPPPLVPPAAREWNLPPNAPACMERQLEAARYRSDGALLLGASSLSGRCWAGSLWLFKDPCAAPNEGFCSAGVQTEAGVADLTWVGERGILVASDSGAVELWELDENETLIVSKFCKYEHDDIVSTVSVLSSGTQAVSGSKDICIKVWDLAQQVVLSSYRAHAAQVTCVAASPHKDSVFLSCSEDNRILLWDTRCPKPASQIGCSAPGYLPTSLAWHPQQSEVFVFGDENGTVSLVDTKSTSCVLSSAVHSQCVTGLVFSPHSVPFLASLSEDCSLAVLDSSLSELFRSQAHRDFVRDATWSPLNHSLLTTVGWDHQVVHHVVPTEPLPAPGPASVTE

Row | IC50 [nM] | Structure (SMILES)
1 | 695 | Cc1nnc(-c2ccc(C(=O)NC[C@H](O)CNC3Cc4ccccc4C3)cc2)o1 [Compound 12, (R)-N-(3-((2,3-Dihydro-1H-inden-2-yl)amino)-2-hydroxypropyl)-4-(5-methyl-1,3,4-oxadiazol-2-yl)benzamide]
2 | 830 | O=C(NC[C@H](O)CNC1Cc2ccccc2C1)c1ccc(N2CCOCC2)nc1 [Compound 11, (R)-N-(3-((2,3-Dihydro-1H-inden-2-yl)amino)-2-hydroxypropyl)-6-morpholinonicotinamide]
3 | 434 | O=C(NCC(O)CNC1Cc2ccccc2C1)c1ccc(C(=O)N2CCOCC2)cc1F (centres unmarked) [Compound 27, N-(3-((2,3-Dihydro-1H-inden-2-yl)amino)-2-hydroxypropyl)-2-fluoro-4-(morpholine-4-carbonyl)benzamide]
4 | 977 | O=C(NCC(O)CNC1Cc2ccccc2C1)c1ccc(C(=O)N2CCC2)cc1 (centres unmarked) [Compound 20, 4-(Azetidine-1-carbonyl)-N-(3-((2,3-dihydro-1H-inden-2-yl)amino)-2-hydroxypropyl)benzamide]
5 | 1110 | O=C(NCC(O)CNC1Cc2ccccc2C1)c1ccc(C(=O)N2CCCC2)cc1 (centres unmarked) [Compound 21, N-(3-((2,3-Dihydro-1H-inden-2-yl)amino)-2-hydroxypropyl)-4-(pyrrolidine-1-carbonyl)benzamide]

target: T1, Full-length PRMT5 enzyme co-expressed with MEP50; assay: Revised PRMT5 Biochemical Assay; settings: 1 μM histone H4 derived peptide substrate, 1 μM S-Adenosyl methionine, 4 hours at 37 degree Celsius, Transcreener EPIGEN fluorescence polarisation
Procedure: as §1
as §2, with “6 μL reactions are” for “6 μL assay reactions are”, “low volume assay plates. All” for “low volume plates. All”, “1 mM Dithiothreitol, 1 μM peptide substrate,” for “1 mM dithiothreitol, 200 nM peptide substrate,”, “hours at 37 degree Celsius. Reaction progress” for “hours at 37° C. Reaction progress”, “for 90 minutes before being” for “for 90 min before being”, “polarisation mode. IC50 values were obtained from the raw readings by calculating percent inhibition (% I) for each reaction relative to controls on the same plate (% I=(I−CN)/(CP−CN) where CN/CP are the averages of the negative/positive reactions, respectively), then fitting the % I data vs. compound concentration [I] to % I=([…]) where A is the lower asymptote, B is the upper asymptote, C is the IC50 value, and D is the slope.” for “polarisation mode.”

Row | IC50 [µM] | Structure (SMILES)
6 | 0.853 | COC(=O)Cc1ccc(C(=O)NC[C@@H](O)CNC2Cc3ccccc3C2)cc1 [Compound 89, (S)-methyl 2-(4-((3-((2,3-dihydro-1H-inden-2-yl)amino)-2-hydroxypropyl)carbamoyl)phenyl)acetate]
7 | 0.505 | O=C(NCC(O)CNC1Cc2ccccc2C1)c1ccc2c(c1)CN(C(=O)CC1CC1)CC2 (racemic) [Compound 93, 2-(2-cyclopropylacetyl)-N-(3-((2,3-dihydro-1H-inden-2-yl)amino)-2-hydroxypropyl)-1,2,3,4-tetrahydroisoquinoline-7-carboxamide]
8 | 4.32 | O=C(NCC(O)CNC1Cc2ccccc2C1)c1ccccc1OCC(F)(F)F (racemic) [Compound 97, N-(3-((2,3-dihydro-1H-inden-2-yl)amino)-2-hydroxypropyl)-2-(2,2,2-trifluoroethoxy)benzamide]
9 | 6.72 | O=C(NC[C@@H](O)CNC1Cc2ccccc2C1)c1cccc2scnc12 [Compound 125, (S)-N-(3-((2,3-dihydro-1H-inden-2-yl)amino)-2-hydroxypropyl)benzo[d]thiazole-4-carboxamide]
10 | 0.733 | CC(=O)N1CCc2ccc(C(=O)NCC(O)CNC3Cc4ccccc4C3)cc2C1 (racemic) [Compound 96, 2-acetyl-N-(3-((2,3-dihydro-1H-inden-2-yl)amino)-2-hydroxypropyl)-1,2,3,4-tetrahydroisoquinoline-7-carboxamide]
11 | 4.15 | O=C(NC[C@@H](O)CNC1Cc2ccccc2C1)c1cccc2ncsc12 [Compound 113, (S)-N-(3-((2,3-dihydro-1H-inden-2-yl)amino)-2-hydroxypropyl) benzo[d]thiazole-7-carboxamide]
12 | 25.3 | O=C(NCC(O)CNC1Cc2ccccc2C1)c1ccnc(-n2cccn2)c1 (centres unmarked) [Compound 49, N-(3-((2,3-dihydro-1H-inden-2-yl)amino)-2-hydroxypropyl)-2-(1H-pyrazol-1-yl)isonicotinamide]
13 | 29.7 | O=C(NC[C@@H](O)CNC1Cc2ccccc2C1)c1cccc2cn[nH]c12 [Compound 132, (S)-N-(3-((2,3-dihydro-1H-inden-2-yl)amino)-2-hydroxypropyl)-1H-indazole-7-carboxamide]
14 | 4.78 | O=C(NCC(O)CNC1Cc2ccccc2C1)c1ccnc(N2CCCC2)c1 (centres unmarked) [Compound 48, N-(3-((2,3-dihydro-1H-inden-2-yl)amino)-2-hydroxypropyl)-2-(pyrrolidin-1-yl)isonicotinamide]
15 | 52.2 | NC(=O)C(CNC(=O)c1ccc(C(=O)N2CCOCC2)cc1)CNC1Cc2ccccc2C1 (centres unmarked) [Compound 107, N-(3-Amino-2-(((2,3-dihydro-1H-inden-2-yl)amino)methyl)-3-oxopropyl)-4-(morpholine-4-carbonyl)benzamide]
16 | 0.137 | CC(=O)N1CCC(Nc2cccc(C(=O)NC[C@@H](O)CNC3Cc4ccccc4C3)c2)CC1 [Compound 42, (S)-3-((1-Acetylpiperidin-4-yl)amino)-N-(3-((2,3-dihydro-1H-inden-2-yl)amino)-2-hydroxypropyl)benzamide]
17 | 0.229 | O=C(NC[C@@H](O)CNC1Cc2ccccc2C1)c1ccc(C(=O)N2CCC3(CCO3)CC2)cc1 [Compound 88, (S)-N-(3-((2,3-dihydro-1H-inden-2-yl)amino)-2-hydroxypropyl)-4-(1-oxa-7-azaspiro[3.5]nonane-7-carbonyl)benzamide]
18 | 6.17 | O=C(NC[C@@H](O)CNC1Cc2ccccc2C1)c1ccc(C(=O)N2CCCCC2)nc1 [Compound 68, (S)-N-(3-((2,3-dihydro-1H-inden-2-yl)amino)-2-hydroxypropyl)-6-(piperidine-1-carbonyl)nicotinamide]
19 | 5.58 | O=C(NC[C@@H](O)CNC1Cc2ccccc2C1)c1ccc(CC(=O)N2CCCCC2)nc1 [Compound 78, (S)-N-(3-((2,3-dihydro-1H-inden-2-yl)amino)-2-hydroxypropyl)-6-(2-oxo-2-(piperidin-1-yl)ethyl)nicotinamide]
20 | 2.76 | COc1cc(CC(=O)N2CCOCC2)ccc1C(=O)NC[C@@H](O)CNC1Cc2ccccc2C1 [Compound 87, (S)-N-(3-((2,3-dihydro-1H-inden-2-yl)amino)-2-hydroxypropyl)-2-methoxy-4-(2-morpholino-2-oxoethyl)benzamide]
21 | 0.487 | CC(=O)N1CCC(Nc2cc(C(=O)NCC(O)CNC3Cc4ccccc4C3)ncn2)CC1 (centres unmarked) [Compound 59, 6-((1-Acetylpiperidin-4-yl)amino)-N-(3-((2,3-dihydro-1H-inden-2-yl)amino)-2-hydroxypropyl)pyrimidine-4-carboxamide 2,2,2-trifluoroacetic acid salt]
22 | 0.18 | O=C(NC[C@@H](O)CNC1Cc2ccccc2C1)c1ccc(C(=O)N2CCC(CO)CC2)cc1 [Compound 61, (S)-N-(3-((2,3-dihydro-1H-inden-2-yl)amino)-2-hydroxypropyl)-4-(4-(hydroxymethyl)piperidine-1-carbonyl)benzamide]
23 | 3.46 | CC(=O)N1CCN(C(=O)Cc2ccc(C(=O)NCC(O)CNC3Cc4ccccc4C3)cc2)CC1 (racemic) [Compound 83, 4-(2-(4-acetylpiperazin-1-yl)-2-oxoethyl)-N-(3-((2,3-dihydro-1H-inden-2-yl)amino)-2-hydroxypropyl)benzamide]
24 | 16.9 | O=C(NC[C@@H](O)CNC1Cc2ccccc2C1)c1cccc(C(F)F)c1 [Compound 138, (S)-3-(difluoromethyl)-N-(3-((2,3-dihydro-1H-inden-2-yl)amino)-2-hydroxypropyl)benzamide]
25 | 1.38 | O=C(NCC(O)CNC1Cc2ccccc2C1)c1ccc2c(c1)CN(C(=O)CC1CC1)C2 (racemic) [Compound 92, 2-(2-cyclopropylacetyl)-N-(3-((2,3-dihydro-1H-inden-2-yl)amino)-2-hydroxypropyl)isoindoline-5-carboxamide]
26 | 1.01 | CN(c1cc(C(=O)NCC(O)CNC2Cc3ccccc3C2)ccn1)C1CCCC1 (centres unmarked) [Compound 43, 2-(cyclopentyl(methyl)amino)-N-(3-((2,3-dihydro-1H-inden-2-yl)amino)-2-hydroxypropyl)isonicotinamide]
27 | 103 | O=C(NC[C@@H](O)CNC1Cc2ccccc2C1)c1ccccc1C(F)(F)F [Compound 118, (S)-N-(3-((2,3-dihydro-1H-inden-2-yl)amino)-2-hydroxypropyl)-2-(trifluoromethyl)benzamide]

Row | Structure (SMILES) | IC50 [µM]
28 | CCOc1cc(C(=O)N2C3CCC2COC3)ncc1C(=O)NC[C@@H](O)CNC1Cc2ccccc2C1 [Compound 126, 6-(3-oxa-8-azabicyclo[3.2.1]octane-8-carbonyl)-N-((S)-3-((2,3-dihydro-1H-inden-2-yl(amino-2-hydroxypropyl)-4-ethoxynicotinamidedihydrochloride] | 0.226
29 | NC(CNC(=O)c1ccc(C(=O)N2C3CCC2COC3)cc1)CNC1Cc2ccccc2C1 (centres unmarked) [Compound 106, N-(2-Amino-3-((2,3-dihydro-1H-inden-2-yl)amino)propyl)-4-(3-oxa-8-azabicyclo[3.2.1]octane-8-carbonyl)benzamide] | 24.3
